One block for each compound: values may come before it.
Key:
[1] = in vivo; cited from earlier work
[2] = clinical trials (Castell et al.); cited from earlier work
[3] = dosed either orally or directly into the colon of a mammal; cited from earlier work
[4] = 2 mg t.i.d. R-baclofen equivalent to racemic baclofen 10 mg t.i.d.; cited from earlier work
[5] = Pharmacokinetics of R-baclofen in dogs after oral dosage forms of compound (1); set-up: species or system Beagle dogs; conditions: dog, in vivo, iv, 10 mg-eq/kg R-baclofen administered intravenously
Procedure: The dogs were fasted overnight before the study and for 4 hours post-dosing. Blood samples (1 mL) were obtained via the femoral vein at intervals over 24 hours after oral dosing. Blood was quenched immediately using acetonitrile with 1% formic acid and then frozen at −20° C. until analyzed.
The concentration of R-baclofen in quenched whole blood was determined using an API 2000 LC/MS/MS instrument equipped with a Shimadzu binary pump and a Leap CTC autosampler. A Phenomenex Hydro-RP 4.6×50 mm column operating at room temperature was used. The mobile phases were (A) water with 0.1% formic acid, and (B) acetonitrile with 0.1% formic acid. The gradient condition was: 5% B for 0.5 min, then to 95% B in 1.8 min; then maintained at 95% B for 1.2 min. The mobile phase was then returned to 5% B for 2 min. A TurbolonSpray source was used on the API 2000. The analysis was done in positive ion mode and an MRM transition of m/z 214/151 was used in the analysis of R-baclofen. Ten (10) μL of the blood sample was injected. The peaks were integrated using Analyst™ Software ([…]) to provide the concentration of R-baclofen in the blood sample.
Pharmacokinetic profiles of sustained release oral dosage forms prepared according to Examples 1-4 at a dose of 10 mg compound (1) following oral administration to dogs is shown in FIG. 5.

SMILES: NCC(CC(=O)O)c1ccc(Cl)cc1 (racemic) [baclofen, (±)-4-Amino-3-(4-chlorophenyl)butanoic acid]
elimination half-life [1]: 3 to 4 h

SMILES: CC(C)C(=O)O[C@@H](OC(=O)NC[C@H](CC(=O)O)c1ccc(Cl)cc1)C(C)C [Compound (1), (3R)-4-{[(1S)-2-methyl-1-(2-methylpropanoyloxy)propoxy]carbonylamino}-3-(4-chlorophenyl)butanoic acid]
reflux episodes in clinical trials [2]: reduce reflux episodes | bioavailability as R-baclofen [3]: high bioavailability

AUC(0-inf) [5]: 1980 ng·h/mL
SMILES: NC[C@H](CC(=O)O)c1ccc(Cl)cc1 [R-baclofen, R-(−)-baclofen]
potency of orally administered R-baclofen relative to orally administered racemic baclofen [4]: about 5 times

Source: patent US20080206332A1, “SUSTAINED RELEASE ORAL DOSAGE FORMS OF A PRODRUG OF R-BACLOFEN AND METHODS OF TREATMENT” (priority 2007, published 2008)
